Measured values published in patent US20190070165A1, “N-HYDROXYISOQUINOLINEDIONE INHIBITORS OF HBV REPLICATION” (Saint Louis University, priority 2016, published 2019).
Read-outs that look alike come from different tables or passages of the source.

Tests used:
HSV-1 = HSV-1 replication inhibition assay in Vero cells; format: cell-based, herpes simplex virus 1; conditions: read-out: HSV-1 suppression (log10 at 5 μM), class symbol
Method: Thirty-seven compounds were counter-screened for efficacy against HSV-1 to evaluate specificity of the inhibitors and to help determine if the efficacy against HBV replication may be due to an unsuspected indirect effect on the cells. Vero cells infected with HSV-1 at an MOI of 0.1 were treated with 5 μM of compound for 24 hours. Inhibition was calculated as log 10 suppression of plaque forming units compared with DMSO vehicle control.
Vero cells were maintained DMEM supplemented with 3% newborn calf serum, 3% bovine growth serum, 2 mM L-glutamine, and P/S. Test compounds were applied to the cells in the presence of 0.05% DMSO. The herpes simplex virus 1 (HSV-1) strain used for screening was a de-identified clinical isolate from the Saint Louis University Hospital passaged once in culture.
Compounds and virus were diluted in phosphate buffered saline (PBS) containing 2% newborn calf serum and 2 mM L-glutamine so that the final concentration of compound was 5 μM. The cells were incubated at 37° C. for 1 hour with the virus containing inoculum, then the inoculum was removed and the wells were washed once in PBS. Compound diluted to 5 μM in supplemented DMEM was added and cells were incubated at 37° C. for an additional 23 hours. The plates were then microscopically inspected for cytopathic effect (CPE) or toxicity and then frozen at −80° C. Virus titers for wells with limited CPE compared to DMSO vehicle-treated controls were then determined by plaque assay on Vero cells. Each experiment was repeated at least once.

HBV replication = HBV replication inhibition assay in HepDES19 cells (strand-preferential q-PCR); format: cell-based, Hepatitis B virus; conditions: for EC50: Hepatitis B virus; for HBV replication inhibition (qualitative): Table 3, qualitative screen at 20 μM; for HBV replication inhibition / activity: HepDES19 cells
Method: HBV replication assay. […] Cells were seeded into 6-well plates and incubated in DMEM/F12, 10% fetal bovine serum (FBS), 1% penicillin/streptomycin (P/S) with 1 μg/mL tetracycline. Tetracycline was withdrawn after 24 hours. The test compound was applied to duplicate wells 48 hours later in medium containing a final DMSO concentration of 1%, and medium containing the compound was refreshed daily for the following two days. Cells were harvested and non-encapsidated nucleic acids were digested with micrococcal nuclease (New England Biolabs). HBV DNA was purified from capsids using QIAamp Cador Pathogen Mini Kit (Qiagen) with proteinase K incubation overnight at 37° C. TaqMan PCR was performed for 40 cycles at an annealing temperature of 60° C.
Thirty-nine HID, HPD, flutimide, and related POH compounds (Structures shown in FIG. 3) were screened for their ability to inhibit HBV replication in HepDES19 cells. […] Inhibition was calculated as the amount of plus-polarity DNA relative to the DMSO treated controls.
Briefly, HepDES19 were seeded in 12-well plates at 2×10^5 cells per well in the absence of tetracycline. Test compound was applied to cells 48 hours after removal of tetracycline. […] HBV DNA was purified from capsids using a QIAamp pathogen minikit with proteinase K digestion extended to overnight at 37° C. TaqMan PCR was performed for 40 cycles with an annealing temperature of 60° C.

human RNaseH1 = molecular target: T1, human RNaseH1 (Homo sapiens, UniProt O60930); assay: Oligonucleotide-directed RNA cleavage assay, human RNaseH1; format: biochemical; conditions: for IC50: Table 1, quantitative values; for Human RNaseH1: Table 1, qualitative inhibition; for inhibition of huRNaseH1: compounds at 100, 60 and 20 μM
T1 construct: made in house; host or cells: E. coli
T1 sequence (O60930 1-286): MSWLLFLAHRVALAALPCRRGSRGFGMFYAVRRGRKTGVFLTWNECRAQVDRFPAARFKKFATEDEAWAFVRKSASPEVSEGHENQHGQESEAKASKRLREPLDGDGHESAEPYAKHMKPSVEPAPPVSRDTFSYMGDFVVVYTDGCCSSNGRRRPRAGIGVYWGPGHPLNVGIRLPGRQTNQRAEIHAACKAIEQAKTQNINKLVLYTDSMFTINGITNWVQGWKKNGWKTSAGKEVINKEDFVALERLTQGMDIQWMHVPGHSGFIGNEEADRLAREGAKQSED
Excerpt: RNaseH expression and purification.
Oligonucleotide-directed RNA cleavage assay.

HBV RNaseH [1] = molecular target: T2, HBV RNaseH (Hepatitis B virus genotype D subtype ayw, UniProt P03156); conditions: for Inhibition of HBV RNaseH, Oligonucleotide directed cleavage assay: Table 3, compounds at 100, 60 and 20 μM, compounds 1-91 and 138-140 previously reported (Cai et al., 2014); for HBV RNaseH: Table 1, qualitative inhibition in biochemical assay
Method: RNaseH expression and purification. […] The enriched extracts were dialyzed into 50 mM HEPES pH 7.3, 300 mM NaCl, 20% glycerol, and 5 mM DTT and stored in liquid nitrogen.
Oligonucleotide-directed RNA cleavage assay. […] This mixture was incubated with test compounds in 50 mM Tris pH 8.0, 190 mM NaCl, 5 mM MgCl2, 3.5 mM DTT, 0.05% NP40, 6% glycerol, and 1% DMSO at 42° C. for 90 minutes. Cleavage products were resolved by denaturing polyacrylamide gel electrophoresis, detected by autoradiography, and quantified using ImageJ. Non-specific background values were determined from the incorrect oligonucleotide negative control lane and subtracted from all experimental values. IC50 values were then calculated with GraphPad Prism using three-parameter log(inhibitor) vs. response non-linear curve fitting with the curve minimum set to zero to reflect background subtraction.
The HBV RNaseH inhibition activity of the 16 previously untested compounds was examined using an oligonucleotide-directed cleavage assay. Compounds were incubated with the HBV RNaseH, a ^32P-labeled RNA substrate plus a complementary DNA oligonucleotide and compounds at 100, 60, and 20 μM and the amount of the RNA cleavage products was measured following resolution on an acrylamide gel.
Briefly, a ^32P-labeled RNA was combined with a DNA oligonucleotide and the RNA:DNA substrate was incubated in the presence of the RNaseH and test compounds in 50 mM tris pH 8.0, 190 mM NaCl, 5 mM MgCl2, 3.5 mM DTT, 0.05% NP40, 6% glycerol, and 1% DMSO at 42° C. for 90 minutes. The products were resolved by gel electrophoresis and detected by audioradioagraphy.

HBV RNaseH [2] = molecular target: T2, HBV RNaseH; assay: Molecular beacon RNaseH assay; conditions: for Inhibition of HBV RNaseH, Molecular Beacon cleavage assay: Table 3, 0 to 500 μM
HBV polymerase = molecular target: T3, HBV polymerase (Hepatitis B virus genotype D subtype ayw, UniProt P03156); assay: Endogenous polymerase reaction (EPR) in isolated HBV capsids; format: biochemical; conditions: ddTTP 5.7 μM; for effect on 32P incorporation in EPR: inhibitors at 4× EC50, #138 and #211 at 30 μM
T3 construct: expressed in transfected cells; host or cells: HepDES19 (HepG2 with a stably transfected HBV genotype D genome)
Excerpt: Anti-RNaseH activity is implied from their preferential suppression of the plus-polarity DNA strand (FIG. 4), but strand-preferential inhibition could also result from inhibiting the polymerase also. This is because positive-polarity DNA synthesis can be suppressed both directly by inhibiting the RNaseH enzyme and indirectly by reducing the amount of negative-polarity DNA strand that templates the positive-polarity strand, whereas minus-polarity DNA synthesis can only be suppressed by chain termination. To determine if the efficacy of these compounds was due to inhibition of the HBV polymerase, capsids isolated from HepDES19 cells were tested in the endogenous polymerase reaction (EPR) to measure DNA chain elongation by the HBV polymerase along the HBV nucleic acids within the capsids. Isolated HBV capsids were supplied with dATP, dTTP, dGTP, and [α^32P]dCTP in the presence of inhibitors at 4× their EC50 values; negative control compounds #138 and #211 were tested at 30 μM. 1% DMSO was used as a vehicle control, and ddTTP (5.7 μM) was the positive control polymerase inhibitor. Samples were incubated at 37° C. for 7 hours to permit DNA chain elongation by the encapsidated HBV polymerase. Nucleic acids were purified, resolved on a 0.8% agarose gel and detected by autoradiography. DNAs from HBV capsids treated with the compounds incorporated ^32P similarly to DMSO control (FIG. 5).
HBV cores were harvested from HepDES19 cells grown in the absence of tetracycline for 20 days using polyethylene glycol 8000 precipitation (Guo et al., 2003). Cells were rinsed in PBS and lysed in 1 mL core lysis buffer with 2 μL of protease inhibitor cocktail (Sigma) at room temperature for 10 minutes. Cell lysates were collected and 10 mM CaCl2) was added. The lysate was centrifuged for 5 minutes at 21,000 g, the supernatant was incubated with 150 U of micrococcal nuclease at 37° C. for 60 minutes, and then 27 mM EDTA was added to stop the reaction. 333 μL of 26% PEG8000 was added to precipitate core particles and incubated at 4° C. for 6 hours. The samples were centrifuged at 21,000 g for 20 minutes at 4° C. The supernatant was removed and the pellet was resuspended in 250 μL of 10 mM Tris buffer pH 7.5. Cores were stored at −80° C.
The endogenous polymerase reaction was done using a modified procedure from (Nguyen et al., 2007). […] These nucleic acids were dissolved in tris-EDTA buffer, resolved on a 0.8% agarose gel, transferred to a HyBondN membrane, and detected by autoradiography. Band intensities for each experiment were quantified using Image J and percent inhibition was calculated relative to the DMSO-treated reactions. Statistical significance of variation in band intensities was evaluated using a one-way ANOVA with a Dunnett post hoc analysis, with p=0.05 indicating significance.

[3] = Human alphaherpesvirus 1, 24 h, 5 μM, Vero cells
[4] = HepDES19, Table 2, qualitative suppression of + and − DNA strands, read-out: EC50 (class symbols)
[5] = HepDES19, read-out: HBV replication inhibition (EC50, μm)
[6] = Human alphaherpesvirus 1, Vero, 24 h
[7] = Table 2, HepDES19 cells, read-out: EC50

T3 sequence (P03156 whole entry): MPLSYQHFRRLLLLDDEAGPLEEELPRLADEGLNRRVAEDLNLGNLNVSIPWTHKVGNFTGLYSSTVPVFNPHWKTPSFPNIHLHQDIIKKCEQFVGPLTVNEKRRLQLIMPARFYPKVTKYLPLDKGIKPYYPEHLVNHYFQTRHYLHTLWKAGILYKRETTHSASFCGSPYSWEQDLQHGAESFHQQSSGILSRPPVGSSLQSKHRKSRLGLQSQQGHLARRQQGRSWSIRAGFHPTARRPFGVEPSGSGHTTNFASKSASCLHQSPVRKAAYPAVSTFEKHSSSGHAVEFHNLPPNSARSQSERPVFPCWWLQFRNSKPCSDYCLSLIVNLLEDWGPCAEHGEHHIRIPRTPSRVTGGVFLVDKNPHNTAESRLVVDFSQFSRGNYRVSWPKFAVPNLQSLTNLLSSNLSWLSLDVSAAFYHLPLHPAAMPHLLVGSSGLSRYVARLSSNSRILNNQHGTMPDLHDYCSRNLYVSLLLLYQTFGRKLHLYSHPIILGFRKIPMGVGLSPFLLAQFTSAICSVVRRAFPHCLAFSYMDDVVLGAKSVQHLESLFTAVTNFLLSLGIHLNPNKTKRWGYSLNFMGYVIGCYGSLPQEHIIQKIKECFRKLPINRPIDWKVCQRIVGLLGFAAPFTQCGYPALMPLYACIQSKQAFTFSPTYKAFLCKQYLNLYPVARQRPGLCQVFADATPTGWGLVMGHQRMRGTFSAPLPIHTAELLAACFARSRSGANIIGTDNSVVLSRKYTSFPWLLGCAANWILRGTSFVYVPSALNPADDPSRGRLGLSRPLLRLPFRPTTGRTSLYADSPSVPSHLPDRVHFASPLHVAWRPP
T2 sequence (P03156 671-832): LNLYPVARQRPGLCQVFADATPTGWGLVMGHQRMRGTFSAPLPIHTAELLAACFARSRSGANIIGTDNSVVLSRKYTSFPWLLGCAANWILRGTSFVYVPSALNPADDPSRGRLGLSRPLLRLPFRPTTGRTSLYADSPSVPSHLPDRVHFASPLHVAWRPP

| Compound | log reduction at 5 µM (HSV-1; [3]) | HBV replication inhibition (qualitative) (HBV replication) | IC50 (human RNaseH1) [µM] | Inhibition of HBV RNaseH, Oligonucleotide directed cleavage assay (HBV RNaseH [1]) | EC50 (HBV replication; [5]) [µM] | Inhibition of HBV RNaseH, Molecular Beacon cleavage assay (HBV RNaseH [2]) | inhibition of huRNaseH1 (human RNaseH1) | further results |
| --- | --- | --- | --- | --- | --- | --- | --- | --- |
| Cc1ccc(CC2C(=O)N(O)C(=O)c3ccccc32)cc1 (stereo not shown) [Compound 80] | < 1 | − (No inhibition detected at 20 μM) | > 100 | − (No inhibition detected at 100 μM) | – | – | – | EC50 (HBV replication; [4]): > 20 µM |
| CCCNC(=O)C1C(=O)N(O)C(=O)c2ccccc21 (stereo not shown) [Compound 82] | < 1 | − (No inhibition detected at 20 μM) | – | − (No inhibition detected at 100 μM) | – | – | – | EC50 (HBV replication; [4]): > 20 µM; Human RNaseH1 (human RNaseH1): +++ (detectable inhibition at 10 μM); HBV RNaseH (HBV RNaseH [1]): +/− |
| O=C(Nc1ccccc1)C1C(=O)N(O)C(=O)c2ccccc21 (stereo not shown) [Compound 84] | < 1 | – | 3.7 | − (No inhibition detected at 100 μM) | 6.5 ± 4.5 | − (No inhibition detected at 500 μM) | – | HBV RNaseH (HBV RNaseH [1]): +/− |
| O=C(NCc1ccccc1)C1C(=O)N(O)C(=O)c2ccccc21 (stereo not shown) [Compound 85] | – | – | 3.9 | − (No inhibition detected at 100 μM) | 6.5 ± 1.5 | − (No inhibition detected at 500 μM) | – | log reduction at 5 µM (HSV-1; [6]): < 1; EC50 (HBV replication; [7]): 6.5 µM; HBV RNaseH (HBV RNaseH [1]): +/− |
| COc1ccc(CNC(=O)C2C(=O)N(O)C(=O)c3ccccc32)cc1 (stereo not shown) [Compound 90] | < 1 | – | – | − (No inhibition detected at 100 μM) | 19 ± 0.9 | − (No inhibition detected at 500 μM) | – | EC50 (HBV replication; [7]): 18 µM; Human RNaseH1 (human RNaseH1): ++ (detectable inhibition at 20 μM) |
| O=C(Nc1ccc(F)cc1)C1C(=O)N(O)C(=O)c2ccccc21 (stereo not shown) [Compound 91] | < 1 | – | 8.7 | − (No inhibition detected at 100 μM) | 4.6 ± 1 | − (No inhibition detected at 500 μM) | – | – |
| NN1C(=O)Cc2ccccc2C1=O [Compound 204] | < 1 | − (No inhibition detected at 20 μM) | – | − (No inhibition detected at 100 μM) | – | – | detectably inhibited | HBV replication inhibition / activity (HBV replication): inactive |
| Nc1cccc(O)n1 [Compound 206] | < 1 | − (No inhibition detected at 20 μM) | – | − (No inhibition detected at 100 μM) | – | – | detectably inhibited | – |
| CC1CC(=O)N(O)C(COc2ccc(Oc3ccc(Cl)cc3)cc2)C1 (stereo not shown) [Compound 211, Rilopirox, reference compound] | < 1 | − (No inhibition detected at 20 μM) | – | − (No inhibition detected at 100 μM) | – | − (No inhibition detected at 500 μM) | – | HBV replication inhibition / activity (HBV replication): inactive; inhibition in the molecular beacon assay (HBV RNaseH [2]; 2.1 μg purified HBV RNaseH): had no effect on the rate of substrate degradation; effect on 32P incorporation in EPR (HBV polymerase): None of the HBV inhibitors or the two negative control compounds (#138 and 211) significantly altered incorporation |
| O=C1C(=O)N(O)C2CCCCC2N1O (stereo not shown) [Compound 217] | – | − (No inhibition detected at 20 μM) | – | − (No inhibition detected at 100 μM) | – | – | detectably inhibited | log reduction at 5 µM (HSV-1; [6]): < 1 |
| O=C1Cn2c(cc3cc(O)ccc32)C(=O)N1O [Compound 240] | < 1 | − (No inhibition detected at 20 μM) | – | − (No inhibition detected at 100 μM) | – | – | detectably inhibited | – |
| Cc1cn([C@H]2CC[C@@H](COP(=O)(O)OP(=O)(O)OP(=O)(O)O)O2)c(=O)[nH]c1=O [ddTTP] | – | – | – | – | – | – | – | reduction of DNA elongation in EPR (HBV polymerase; 7 hours, 37° C.): ~90%; effect on 32P incorporation in EPR (HBV polymerase): strongly inhibited |
